The record followed here is patent US20240018151A1, “NOVEL INHIBITORS OF PIKFYVE AND METHODS USING SAME” (priority 2020, published 2024).

Bounds are passed on as bounds.

For data set [1], the target named is T1, PIKFYVE (Homo sapiens (Human), UniProt Q9Y2I7). Briefly: ADP-GLO Kinase Assay, PIKFYVE inhibitory activity. Type of data set: biochemical. Conditions: substrate PI3P 10,000 nM. The procedure: (§1) Briefly, 4× compound solution and 4×ATP solution are prepared with assay buffer (50 mM MOPS, 1 mM DTT, pH7.2). 4× Substrate solution and 4× kinase/Metal solution are prepared with MOPS based buffer containing individual kinase specific additives. Then, […] of 4× compound solution, 5 μL of 4× Substrate solution, 5 μL of 4×ATP solution, and 5 μL of 4× kinase/Metal solution are mixed and incubated in a well of polystyrene 384 well black microplate for 1 hour at room temperature. Next, 20 μL of ADP-Glo™ Reagent (Promega) is added to the well, and incubated for over 40 minutes. 40 μL of Kinase Detection Reagent (Promega) is added to the well, and incubated for over 40 minutes. The kinase reaction is evaluated by the endpoint luminescence of the well.
T1 sequence (Q9Y2I7 whole entry): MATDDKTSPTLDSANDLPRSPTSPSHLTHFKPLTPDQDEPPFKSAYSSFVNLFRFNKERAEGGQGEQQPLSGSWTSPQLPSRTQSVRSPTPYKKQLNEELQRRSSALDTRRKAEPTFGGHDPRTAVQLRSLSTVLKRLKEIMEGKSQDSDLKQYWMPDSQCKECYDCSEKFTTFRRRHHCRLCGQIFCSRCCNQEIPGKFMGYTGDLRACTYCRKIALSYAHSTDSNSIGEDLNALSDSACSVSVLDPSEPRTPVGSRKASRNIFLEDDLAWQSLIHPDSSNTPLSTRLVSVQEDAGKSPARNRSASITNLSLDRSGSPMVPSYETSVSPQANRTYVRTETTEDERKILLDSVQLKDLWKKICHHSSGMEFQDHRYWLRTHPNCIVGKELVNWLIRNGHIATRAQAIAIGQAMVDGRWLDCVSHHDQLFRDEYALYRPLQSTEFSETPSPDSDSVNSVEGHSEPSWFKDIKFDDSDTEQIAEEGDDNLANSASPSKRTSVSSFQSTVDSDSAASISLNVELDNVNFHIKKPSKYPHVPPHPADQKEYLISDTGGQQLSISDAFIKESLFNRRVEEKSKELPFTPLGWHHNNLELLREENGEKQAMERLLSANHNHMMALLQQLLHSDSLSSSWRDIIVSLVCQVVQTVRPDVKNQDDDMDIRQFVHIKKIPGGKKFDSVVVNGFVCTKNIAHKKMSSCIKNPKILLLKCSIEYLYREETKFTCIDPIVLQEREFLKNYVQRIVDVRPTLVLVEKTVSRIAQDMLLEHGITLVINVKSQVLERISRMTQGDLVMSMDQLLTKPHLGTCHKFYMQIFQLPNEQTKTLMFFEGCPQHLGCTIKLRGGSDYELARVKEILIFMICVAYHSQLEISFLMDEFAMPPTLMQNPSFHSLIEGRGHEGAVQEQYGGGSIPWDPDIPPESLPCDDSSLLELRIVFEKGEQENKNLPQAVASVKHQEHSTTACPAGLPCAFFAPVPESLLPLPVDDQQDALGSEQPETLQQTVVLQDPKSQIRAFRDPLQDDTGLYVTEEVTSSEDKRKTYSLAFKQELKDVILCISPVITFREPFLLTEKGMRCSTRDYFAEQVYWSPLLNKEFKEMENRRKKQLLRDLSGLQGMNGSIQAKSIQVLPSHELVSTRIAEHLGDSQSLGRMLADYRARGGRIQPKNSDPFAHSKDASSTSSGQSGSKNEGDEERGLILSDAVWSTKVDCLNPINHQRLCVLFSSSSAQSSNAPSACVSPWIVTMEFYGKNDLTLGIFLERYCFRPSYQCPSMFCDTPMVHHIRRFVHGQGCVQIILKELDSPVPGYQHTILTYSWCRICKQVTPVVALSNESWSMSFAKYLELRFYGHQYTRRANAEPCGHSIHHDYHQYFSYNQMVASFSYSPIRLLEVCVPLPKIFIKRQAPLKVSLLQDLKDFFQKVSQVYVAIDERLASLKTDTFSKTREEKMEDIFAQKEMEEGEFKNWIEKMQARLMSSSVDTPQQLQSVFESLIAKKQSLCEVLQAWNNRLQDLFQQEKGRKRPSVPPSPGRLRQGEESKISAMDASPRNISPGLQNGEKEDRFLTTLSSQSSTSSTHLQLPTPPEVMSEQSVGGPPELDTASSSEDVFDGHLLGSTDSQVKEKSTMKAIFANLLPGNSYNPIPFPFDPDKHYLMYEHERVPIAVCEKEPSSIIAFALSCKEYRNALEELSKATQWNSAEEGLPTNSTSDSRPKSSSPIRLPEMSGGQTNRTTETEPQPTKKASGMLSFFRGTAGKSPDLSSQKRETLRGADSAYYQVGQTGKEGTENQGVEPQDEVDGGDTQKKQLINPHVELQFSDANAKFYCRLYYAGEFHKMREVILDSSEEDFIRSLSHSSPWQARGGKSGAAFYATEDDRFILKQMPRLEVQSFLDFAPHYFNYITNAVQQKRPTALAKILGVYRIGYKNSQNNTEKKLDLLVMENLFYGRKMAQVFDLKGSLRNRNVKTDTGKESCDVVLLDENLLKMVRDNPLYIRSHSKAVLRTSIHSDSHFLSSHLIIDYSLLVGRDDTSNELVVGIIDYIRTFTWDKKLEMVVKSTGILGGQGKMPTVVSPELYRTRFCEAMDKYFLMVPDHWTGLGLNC
For measurement of PIKFYVE activity, the substrate is PI3P at 10,000 nM concentration, using AG-182 as a positive control. The metal used is magnesium at 5 mM concentration.

The test system of data set [2] is PIK3CA, PIP4K2A, PIP4K2B, PIP4K1A, PIP4K1B, PIP4K1C, PIP5KL1. Put plainly: Comparative Kinase Assays (selectivity versus other lipid kinases). Type of data set: biochemical. The procedure:
as §1
To determine whether the compounds are selective, the assay is repeated using appropriate substrates for different test enzymes:
The compounds of Examples 1, 3 and 6 are tested against these enzymes: […]

The test system of data set [3] is SARS-CoV-2 spike pseudovirus in BHK21/hACE2 cells. Put plainly: microbe, parasite or virus in culture. Type of data set: cell-based. Conditions: Severe acute respiratory syndrome coronavirus 2, BHK-21.
The next data set deals with SARS-CoV-2 in Vero cells. Put plainly: SARS-CoV-2 immunofluorescence assay (IFA). Type of data set: cell-based. The settings on record: Severe acute respiratory syndrome coronavirus 2, SARS-CoV2 IFA Assay.
Data set [4] is described as follows: Cytotoxicity (CC50) in SARS-CoV-2 IFA. Conditions: African green monkey; SARS-CoV2 IFA Assay; Vero cells. Type of data set: cell-based. The procedure: SARS-CoV-2 IFA: In 384-well plates, Vero cells re seeded at an appropriate density and cultured at 37° C. and 5% CO2. Serially diluted (10 concentrations, in duplicates) test/reference compounds are added. Then the cells are infected with virus. The resulting cultures are incubated for an additional 1 day. The cells are then fixed and analyzed by immunofluorescence. EC50 and CC50 values are calculated with GraphPad Prism software.

Data set [5] relates to influenza A strain California/07/09 (H1N1) pdm09 in MDCK cells. Briefly: Influenza A IFA assay (CPE inhibition, neutral red). Type of data set: cell-based. Conditions: Influenza A virus.
Data set [6] can be described thus: Cytotoxicity (CC50) in Influenza A assay. Type of data set: cell-based. Conditions: dog; Influenza A IFA Assay; MDCK cells. The method, then:
Influenza A IFA: Test compounds are solubilized in DMSO to prepare 20 mg/mL stock solutions. Compounds are then serially diluted using eight half-log dilutions in test media so that the starting (high) test concentration is 100 μg/mL. Each dilution is added to 5 wells of a 96-well plate with 80-100% confluent MDCK cells. Three wells of each dilution are infected with virus (strain influenza A strain California/07/09 (H1N1) pdm09), and two wells remain uninfected as toxicity controls. As virus controls, six wells are infected but untreated, and as cell controls, six wells are uninfected and untreated. Each virus is prepared to achieve an MOI (multiplicity of infection) of 0.001. A positive control compound is tested in parallel. Plates are incubated at 37° C. under 5% CO2 atmosphere. On day 3 post-infection (once untreated virus control cells reached maximum cytopathic effect, CPE), plates are stained with neutral red dye for 2 hours. Supernatant dye is removed and the wells are rinsed with PBS. The incorporated dye is extracted using 50:50 Sorensen citrate buffer/ethanol for at least 30 minutes, and the optical density is read at […] on a spectrophotometer. […] The selectivity index (SI) is calculated as CC50 divided by EC50. […]

Data set [7] has as its system HuT-78 (T cell lymphoma) cells. Put plainly: Anti-proliferative assay (CellTiter-Glo), HuT-78. Type of data set: cell-based. The settings on record: Homo sapiens, HuT78, 144 h, six days incubation. The method, then:
(§2) Selected compounds are evaluated for their anti-proliferative activity against human cutaneous T-cell lymphoma and multiple myeloma cell lines.
(§3) HuT-78 (T cell lymphoma) cells or JJN3 (multiple myeloma) cells are cultured in RPMI-1640 with 10% FBS and 1% penicillin/streptomycin. 45 μL suspensions of cells are transferred to the wells of 384-well plate for a density of 1,000 cells per well. The plates are incubated overnight at 37° C. under 5% CO2 atmosphere. Test compounds are dissolved in 100% DMSO at a 2 mM concentration, then diluted 20× in assay medium for to provide a 5% DMSO concentration and 100 μM compound concentration. 5 μL of this compound solution is added to the 45 μL cell suspension in the assay plate for a top plate concentration of 10 μM and 0.5% DMSO concentration. For positive controls, 10 μM APY0201 is added instead of the compound solution. After spinning at 1000 rpm for 1 minutes, the cell plate is placed in the incubator […] at 37° C. under 5% CO2 atmosphere. After incubation for six days, the cell plate is equilibrated to room temperature for 20 minutes. 25 μL of CellTiter-Glo (CTG) reagent (Promega Cat No. G7572) is added to each well, and the plate is shaken for 15 minutes at 300 rpm. Luminescence is read on an Envision plate reader.

The test system of data set [8] is JJN3 (multiple myeloma) cells. Briefly: Anti-proliferative assay (CellTiter-Glo), JJN3. Type of data set: cell-based. Conditions: Homo sapiens, JJN-3, 144 h, six days incubation. The method, then:
as §2, §3

The next data set in a line: in vitro. Conditions: hamster.
Data set [9] concerns the target T1, PIKFYVE. Put plainly: KINOMEScan Kinase Assay, PIKFYVE binding. The settings on record: for inhibition at 0.05 µM: read-out: % Inhib. (50 nM).

Take `Cc1cccc(-c2ccn(-c3cc(N4CCOCC4)n4nc(-c5ccncc5)cc4n3)n2)c1` [Ex. 1]: the IC50 was less than 0.05 µM on PIKFYVE [1], 0.1 to 1 µM in [7] and less than 0.1 µM in data set [8]. Moreover, the “Fold Selectivity for PIKFYVE” value in data set [2] is given as >100-fold. In addition, the EC50 is less than 0.01 µM in data set [3], 0.1 to 1 µM in the data set with SARS-CoV-2 in Vero cells and 1 to 5 µM in [5]. The same compound yielded a CC50 at 1 day in data set [4] greater than 20 µM. For the same compound, the results for the CC50 (in [6]; in the data set “in vitro”) were greater than 20 µM and 5 to 10 µM, respectively. The same compound displayed a dissociation constant (Kd) on PIKFYVE [9] of less than 0.001 µM.

For the compound `Cc1ccccc1-c1ccn(-c2cc(N3CCOCC3)n3nc(-c4ccncc4)cc3n2)n1` [Ex. 7], on PIKFYVE [1], the IC50 is 0.05 to 1 µM. The inhibition at 0.05 µM at PIKFYVE [9] was less than 50%.

In turn, `Fc1cccc(-c2ccn(-c3cc(N4CCOCC4)n4nc(-c5ccncc5)cc4n3)n2)c1` [Ex. 2] came in with an IC50 at PIKFYVE [1] of less than 0.05 µM. Further, the inhibition at 0.05 µM on PIKFYVE [9] fell in the range of 50 to 80%.

As for `Fc1ccc(-c2ccn(-c3cc(N4CCOCC4)n4nc(-c5ccncc5)cc4n3)n2)cc1` [Ex. 9], on PIKFYVE [1], the IC50 is less than 0.05 µM. The inhibition at 0.05 µM at PIKFYVE [9] lay in the range of 50 to 80%.

On to `Brc1cccc(-c2ccn(-c3cc(N4CCOCC4)n4nc(-c5ccncc5)cc4n3)n2)c1` [Ex. 3], for which the 50% effective concentration (EC50) in data set [3] is less than 0.01 µM; in the data set on SARS-CoV-2 in Vero cells, 1 to 5 µM; in data set [5] it was 5 to 10 µM. Also, the CC50 at 1 day in [4] was greater than 20 µM. Also, the values for the CC50 (in data set [6]; in “in vitro”) were greater than 20 µM and greater than 10 µM, respectively. The inhibition at 0.05 µM on PIKFYVE [9] lay within 80 to 100%.

Compound `Fc1ccccc1-c1ccn(-c2cc(N3CCOCC3)n3nc(-c4ccncc4)cc3n2)n1` [Ex. 8] had an IC50 against PIKFYVE [1] of less than 0.05 µM. At PIKFYVE [9], the inhibition at 0.05 µM lay within 50 to 80%.

For `Cc1cccc(/C=N/Nc2cc(N3CCOCC3)nc(OCCc3ccccn3)n2)c1` [Apilimod, reference compound], the EC50 in data set [3] is less than 0.01 µM. For the same compound, the CC50 in “in vitro” was found to be 8 µM.

In data set [3], `CCN(CC)CCCC(C)Nc1ccnc2cc(Cl)ccc12` (stereo not shown) [Chloroquine, chloroquine, reference compound] gave a concentration giving a half-maximal response (EC50) of 6 µM. This compound also displayed a CC50 in “in vitro” of 35 µM.

On PIKFYVE [1], `CC(C)(C)c1ccn(-c2cc(N3CCOCC3)n3nc(-c4ccncc4)cc3n2)n1` [Ex. 5] came in with an IC50 greater than 1 µM. Further, the inhibition at 0.05 µM on PIKFYVE [9] is less than 50%.

With `COc1cccc(-c2ccn(-c3cc(N4CCOCC4)n4nc(-c5ccncc5)cc4n3)n2)c1` [Ex. 6], the figures for the IC50 (at PIKFYVE [1]; in data set [7]; in data set [8]) were less than 0.05 µM, 0.1 to 1 µM and less than 0.1 µM, respectively. In addition, in [2], the “Fold Selectivity for PIKFYVE” value is listed as >200-fold. Moreover, the concentration giving a half-maximal response (EC50) in data set [3] is less than 0.01 µM. This compound also displayed a CC50 in the data set “in vitro” of 5 to 10 µM. At PIKFYVE [9], this compound displayed a Kd of less than 0.001 µM.

On PIKFYVE [1], `N#Cc1cccc(-c2ccn(-c3cc(N4CCOCC4)n4nc(-c5ccncc5)cc4n3)n2)c1` [Ex. 4] had an IC50 of less than 0.05 µM. At PIKFYVE [9], the inhibition at 0.05 µM fell in the range of 50 to 80%.

Compound `FC(F)(F)c1ccc(-c2ccn(-c3cc(N4CCOCC4)n4nc(-c5ccncc5)cc4n3)n2)cc1` [Ex. 10] gave an IC50 against PIKFYVE [1] greater than 1 µM. The inhibition at 0.05 µM at PIKFYVE [9] was less than 50%.
